PubChem BioAssay AID651642 (Sanford-Burnham Center for Chemical Genomics, 2012)

Tests used:
HL-1 = test: cardiomyocyte survival under oxidative or metabolic stress – cell-based, panel, H9c2 and HL-1, H2O2, 2-deoxyglucose, ATP luminescence, SAR follow-up (AID 651642)
H9c2 = test: as above
[1] = H9c2/HL-1 cardiomyocyte 2-deoxyglucose damage, mean of runs, with 2-deoxyglucose, mean IC50 across panel
[2] = H9c2/HL-1 cardiomyocyte 2-deoxyglucose damage, run 1, with 2-deoxyglucose
[3] = H9c2/HL-1 cardiomyocyte 2-deoxyglucose damage, run 2, with 2-deoxyglucose
[4] = H9c2/HL-1 cardiomyocyte 2-deoxyglucose damage, run 3, with 2-deoxyglucose
[5] = H9c2/HL-1 cardiomyocyte 2-deoxyglucose damage, run 4, with 2-deoxyglucose
[6] = H9c2/HL-1 cardiomyocyte H2O2 oxidative damage, run 1, with H2O2
[7] = H9c2/HL-1 cardiomyocyte H2O2 oxidative damage, run 2, with H2O2
[8] = H9c2/HL-1 cardiomyocyte H2O2 oxidative damage, run 3, with H2O2
[9] = H9c2/HL-1 cardiomyocyte H2O2 oxidative damage, run 4, with H2O2
[10] = H9c2/HL-1 cardiomyocyte H2O2 oxidative damage, mean of runs, with H2O2, mean IC50 across panel

| SMILES | IC50 (HL-1; [1]) | IC50 (HL-1; [2]) | IC50 (HL-1; [3]) | IC50 (HL-1; [4]) | IC50 (HL-1; [5]) | IC50 (HL-1; [6]) | IC50 (HL-1; [7]) | IC50 (HL-1; [8]) | IC50 (HL-1; [9]) | IC50 (H9c2; [1]) | IC50 (H9c2; [2]) | IC50 (H9c2; [3]) | IC50 (H9c2; [4]) | IC50 (H9c2; [5]) | IC50 (H9c2; [6]) | IC50 (H9c2; [7]) | IC50 (H9c2; [8]) | IC50 (H9c2; [9]) | IC50 (H9c2; [10]) |
| --- | --- | --- | --- | --- | --- | --- | --- | --- | --- | --- | --- | --- | --- | --- | --- | --- | --- | --- | --- |
| COC(=O)CNC(=O)c1cc(-c2cc(OC)c(OC)c(OC)c2)nc2ccccc12 | > 79 µM | > 79 µM | > 79 µM | > 79 µM | > 79 µM | > 79 µM | 41.2 µM | > 79 µM | > 79 µM | > 79 µM | > 79 µM | > 79 µM | > 79 µM | > 79 µM | > 79 µM | 39.1 µM | > 79 µM | > 79 µM |  |
| CCOC(=O)c1cccc(NC(=O)c2cc(-c3cc(OC)c(OC)c(OC)c3)nc3ccc(Br)cc23)c1 | > 79 µM | > 79 µM | > 79 µM | > 79 µM | > 79 µM | > 79 µM | > 79 µM | > 79 µM | 4.69 µM | > 79 µM | > 79 µM | > 79 µM | > 79 µM | > 79 µM | 2.86 µM | 3.15 µM | > 79 µM | > 79 µM |  |
| COc1cc(-c2cc(C(=O)Nc3cccc(C#N)c3)c3ccccc3n2)cc(OC)c1OC |  | 5.37 µM | 7.28 µM | > 79 µM | > 79 µM | > 79 µM | > 79 µM | 6.09 µM | 11.1 µM | > 79 µM | > 79 µM | > 79 µM | > 79 µM | > 79 µM | 7.93 µM | 8.58 µM | > 79 µM | 6.2 µM |  |
| COc1ccccc1CN1C(=O)c2ccccc2N2C(=O)c3c(ccc(OC)c3OC)C12 (centres undefined) | 5.37 µM | 2.86 µM | 3.96 µM | 6.95 µM | 7.71 µM | > 79 µM | > 79 µM | 4.54 µM | 12 µM |  | > 79 µM | > 79 µM | 43.5 µM | 46.2 µM | > 79 µM | 0.303 µM | > 79 µM | > 79 µM |  |
| COc1cc(-c2cc(C(=O)NCC(=O)Nc3ccc(C(C)=O)cc3)c3ccccc3n2)cc(OC)c1OC |  | > 79 µM | > 79 µM | 6.28 µM | 7.65 µM | > 79 µM | > 79 µM | 7.43 µM | 9.32 µM |  | > 79 µM | > 79 µM | 6.74 µM | 8.41 µM | > 79 µM | > 79 µM | 1.62 µM | 1.71 µM |  |
| COc1ccc2c(c1OC)C(=O)N1c3ccccc3C(=O)N(Cc3ccc(C)cc3C)C21 (centres undefined) | > 79 µM | > 79 µM | > 79 µM | > 79 µM | > 79 µM | > 79 µM | > 79 µM | > 79 µM | > 79 µM | > 79 µM | > 79 µM | > 79 µM | > 79 µM | > 79 µM | > 79 µM | > 79 µM | > 79 µM | > 79 µM | > 79 µM |
| COc1cc(-c2cc(C(=O)Nc3cccc(C(=O)Nc4ccccc4)c3)c3ccccc3n2)cc(OC)c1OC | 1.19 µM | 0.708 µM | 0.802 µM | 1.43 µM | 1.8 µM | > 79 µM | 1.54 µM | 1.68 µM | 2.15 µM | 4.71 µM | 5.69 µM | 5.71 µM | 3.53 µM | 3.93 µM | 1.55 µM | 1.96 µM | 0.724 µM | 0.895 µM | 1.28 µM |
